The text below walks through data of PubChem BioAssay AID1259407 (Chemical Carcinogenesis Research Information System (CCRIS), 2018).

Structures are written as SMILES. Calls of active or inactive are those of the source. How the calls were made is not given here.

The data set has as its system CCRIS mutagenicity, Ames/micronucleus/aberration tests. The data set can be described thus: CCRIS mutagenicity studies.

As for `Oc1cccc2cccnc12`, the mutagenic call (End Point: IN VITRO CHROMOSOMAL ABERRATIONS, Test System: CHL CELLS, Metabolic Activation: RAT, LIVER, S-9, SODIUM PHENOBARBITAL AND 5,6-BENZOFLAVONE) is “active; positive (structural changes)”; the mutagenic call (End Point: IN VITRO CHROMOSOMAL ABERRATIONS, Test System: CHO-LB CELLS, Metabolic Activation: NONE) is “inactive; negative”; the mutagenic call (End Point: IN VITRO CHROMOSOMAL ABERRATIONS, Test System: CHO-LB CELLS, Metabolic Activation: RAT, LIVER, S-9, AROCLOR 1254) is “active; positive”; the mutagenic call (End Point: IN VITRO CHROMOSOMAL ABERRATIONS, Test System: CHO-WBL CELLS, Metabolic Activation: RAT, LIVER, S-9, PHENOBARBITAL AND BETA-NAPHTHOFLAVONE) is “active; positive”; the mutagenic call (Test System: AMES SALMONELLA TYPHIMURIUM, Strain/Indicator: TA97, Metabolic Activation: HAMSTER, LIVER, S-9, AROCLOR 1254 (10%), Method: PREINCUBATION) was “active; positive”; the mutagenic call (Test System: AMES SALMONELLA TYPHIMURIUM, Strain/Indicator: TA97, Metabolic Activation: NONE, Method: PREINCUBATION) was “inactive; negative”. Besides, the mutagenic call was “active; positive” (Test System: AMES SALMONELLA TYPHIMURIUM, Strain/Indicator: TA97, Metabolic Activation: RAT, LIVER, S-9, AROCLOR 1254 (10%), Method: PREINCUBATION); “inactive; negative” (Test System: AMES SALMONELLA TYPHIMURIUM, Strain/Indicator: TA98, Metabolic Activation: HAMSTER, LIVER, S-9, AROCLOR 1254 (10%), Method: PREINCUBATION); “inactive; negative” (Test System: AMES SALMONELLA TYPHIMURIUM, Strain/Indicator: TA98, Metabolic Activation: HAMSTER, LIVER, S-9, AROCLOR 1254 (30%), Method: PREINCUBATION); “inactive; negative” (Test System: AMES SALMONELLA TYPHIMURIUM, Strain/Indicator: TA98, Metabolic Activation: NONE, Method: FLUCTUATION (MICROTITER)); “inactive; negative” (Test System: AMES SALMONELLA TYPHIMURIUM, Strain/Indicator: TA98, Metabolic Activation: NONE, Method: PREINCUBATION); “active; positive” (Test System: AMES SALMONELLA TYPHIMURIUM, Strain/Indicator: TA98, Metabolic Activation: RAT LIVER S-9, AROCLOR 1254, Method: FLUCTUATION (MICROTITER)). Moreover, the mutagenic call (Test System: AMES SALMONELLA TYPHIMURIUM, Strain/Indicator: TA98, Metabolic Activation: RAT, LIVER, S-9, AROCLOR 1254 (10%), Method: PREINCUBATION) is “inactive; negative”; the mutagenic call (Test System: AMES SALMONELLA TYPHIMURIUM, Strain/Indicator: TA98, Metabolic Activation: RAT, LIVER, S-9, AROCLOR 1254 (30%), Method: PREINCUBATION) was “active; positive”; the mutagenic call (Test System: AMES SALMONELLA TYPHIMURIUM, Strain/Indicator: TA98, Metabolic Activation: RAT, LIVER, S-9, AROCLOR 1254, Method: STANDARD PLATE) is “active; positive”; the mutagenic call (Test System: AMES SALMONELLA TYPHIMURIUM, Strain/Indicator: TA98, Metabolic Activation: RAT, LIVER, S-9, KC500 OR PHENOBARBITAL, Method: LIQUID SUSPENSION) is “active; positive”; the mutagenic call (Test System: AMES SALMONELLA TYPHIMURIUM, Strain/Indicator: TA98, Metabolic Activation: RAT, LIVER, S-9, Method: PREINCUBATION) was “active; positive”; the mutagenic call (Test System: AMES SALMONELLA TYPHIMURIUM, Strain/Indicator: TA100, Metabolic Activation: HAMSTER, LIVER, S-9, AROCLOR 1254 (10%), Method: PREINCUBATION) was “active; positive”. Also, the mutagenic call by setting is: (Test System: AMES SALMONELLA TYPHIMURIUM, Strain/Indicator: TA100, Metabolic Activation: HAMSTER, LIVER, S-9, AROCLOR 1254 (30%), Method: PREINCUBATION) “inactive; negative”; (Test System: AMES SALMONELLA TYPHIMURIUM, Strain/Indicator: TA100, Metabolic Activation: NONE, Method: PREINCUBATION) “inactive; negative”; (Test System: AMES SALMONELLA TYPHIMURIUM, Strain/Indicator: TA100, Metabolic Activation: NONE, Method: STANDARD PLATE) “inactive; negative”; (Test System: AMES SALMONELLA TYPHIMURIUM, Strain/Indicator: TA100, Metabolic Activation: RAT, LIVER, S-9, AROCLOR 1254 (5%, 10% OR 20%), Method: STANDARD PLATE) “active; positive”; (Test System: AMES SALMONELLA TYPHIMURIUM, Strain/Indicator: TA100, Metabolic Activation: RAT, LIVER, S-9, AROCLOR 1254 (10% OR 20%), Method: STANDARD PLATE) “active; positive”; (Test System: AMES SALMONELLA TYPHIMURIUM, Strain/Indicator: TA100, Metabolic Activation: RAT, LIVER, S-9, AROCLOR 1254 (10%), Method: PREINCUBATION) “active; positive”.
